Data set [1] has as its system HepG2 cells. In words: Intracellular ROS level (DCFH-DA) in HepG2 cells with TBHP-induced oxidative damage. To be noted: for ROS level (percentage of the negative control group): HepG2, pre-treatment 100 μg/mL phytol 24 h, then TBHP (10 μg/mL). The format is cell-based, human. The procedure: • […], P-ZF, P-NL, and P-NL-ZF to the plate for another 24 hours of incubation; […]; measuring a cell survival rate, an intracellular reactive oxygen species (ROS) level, malondialdehyde (MDA) content, and superoxide dismutase (SOD) activity.
(§1) • placing the digested HepG2 cells in a culture dish and performing a treatment as in step (O); adding 10.00 μM 2′,7′-dichlorodihydrofluorescein diacetate (DCFH-DA) and incubating for 0.5 hours, followed by washing with PBS (pH 7.4); allowing intracellular esterase to cleave the DCFH-DA, which is then oxidized to highly fluorescent dichlorofluorescein in the presence of ROS; measuring a fluorescence intensity of the 96-well plate using a multifunctional microplate reader at an excitation wavelength of 485 nm and an emission wavelength of 528 nm, expressing the intracellular ROS level as a percentage of the negative control group; • assessing the SOD activity and the MDA content by culturing the digested HepG2 cells for 24 hours; after the treatment as in step (O), adding 300 μL of lysis buffer and incubating on ice for 30 minutes; centrifuging at 11,000×g for 5 minutes at 4° C. and collecting a resulting supernatant; and quantifying the SOD activity and the MDA content according to instructions of SOD and MDA assay kits; and
• seeding the digested cells at a density of 3×10^5 cells per well into a 6-well plate and incubating for 24 hours; after incubation, aspirating a culture medium and continuing with the grouping and treatment as in step (0); after 24 hours, replacing an original solution with 25 μM DCFH-DA solution and incubating for 60 minutes; washing the cells twice with PBS to remove unabsorbed probes; observing a fluorescence generated within the cells by placing the 6-well plate under a fluorescence microscope equipped with an FITC fluorescence channel.
HepG2 cells, after digestion, were seeded at a density of 1×10^5 cells/well in a 96-well cell culture plate and were placed in a cell culture incubator. […]

Data set [2] has as its system HepG2 cells. Kind of data set: TBHP-induced oxidative damage concentration, cell viability by CCK-8. The format is cell-based, human. To be noted: HepG2, TBHP 10 μg/mL, 24 hours. As for the experimental part:
HepG2 cells, after digestion, were seeded at a density of 1×10^5 cells/well in a 96-well cell culture plate and were incubated in a cell culture incubator. […] After 24 hours of incubation, the culture medium was removed, and the working solutions of TBHP at different concentrations were added to the wells, followed by an additional 24 hours of incubation. After the incubation period, the vitality of the HepG2 cells was assessed using the CCK-8 method, as detailed in section 2.6.4.

Data set [3] deals with HepG2 cells. Kind of data set: SOD activity in HepG2 cells with TBHP-induced oxidative damage. The data set is classed as cell-based, human. To be noted: HepG2, TBHP (10 μg/mL). As for the experimental part:
(§2) • culturing the digested HepG2 cells for 24 hours and then adding […] concentrations of PHY, P-ZF, P-NL, and P-NL-ZF to the plate for another 24 hours of incubation; […]; measuring a cell survival rate, an intracellular reactive oxygen species (ROS) level, malondialdehyde (MDA) content, and superoxide dismutase (SOD) activity.
as §1, with “kits; and […]” for “kits; and”

The test system of data set [4] is HepG2 cells. Kind of data set: MDA content in HepG2 cells with TBHP-induced oxidative damage. The data set is classed as cell-based, human. The following applies: HepG2, TBHP (10 μg/mL). As for the experimental part:
as §2
as §1, with “kits; and […]” for “kits; and”

A short description of data set [5]: Hydroxyl radical scavenging activity. The format is biochemical. The following applies: 37° C., 30 minutes, absorbance 536 nm. As for the experimental part: • mixing 1.00 mL of the nanoliposomes with 1.00 mL of 9.00 mmol/L salicylic acid ethanol solution, 1.00 mL of 9.00 mmol/L FeCl2, and 1.00 mL of 8.80 mmol/L H2O2; incubating a resulting mixture in the dark at 37° C. for 30 minutes; measuring an absorbance of a reaction mixture at 536 nm using a multifunctional microplate reader and calculating a hydroxyl radical scavenging rate;
A sample of the nanoliposome (1.00 mL) was mixed with an ethanol solution of salicylic acid (1.00 mL, 9.00 mmol/L), FeCl2 (1.00 mL, 9.00 mmol/L), and H2O2(1.00 mL, 8.80 mmol/L) and incubated in the dark at 37° C. for 30 minutes. The absorbance of the reaction mixture was measured at 536 nm using a multifunctional microplate reader (Varioskan Flash, Thermo Fisher Scientific, Massachusetts, USA). The hydroxyl radical scavenging rate was calculated using the following formula: […]

The nature of data set [6]: Photostability under UV light, phytol retention by GC-MS. The format is physicochemical. To be noted: after 16 hours of UV exposure; free phytol in ethanol. The procedure: • exposing a sample to ultraviolet (UV) light for various irradiation durations: […], 90 minutes, 120 minutes, 150 minutes, 180 minutes, 210 minutes, 240 minutes, 270 minutes, […]; and determining retention of phytol content using GC-MS.
To assess the photostability of phytol loaded in nanoparticles (P-ZF, P-NL, and P-NL-ZF) as well as free phytol dissolved in ethanol, samples were irradiated under UV light for various durations: […], 90 minutes, 120 minutes, 150 minutes, 180 minutes, 210 minutes, 240 minutes, 270 minutes, […] The content of retained phytol was determined using GC-MS as described in Section 2.5.2. The calculation formula for retention rate is given as follows: […]

What is called cell viability is a read-out of living cells in per cent, often relative to untreated cells. The low end stands for a greater loss of cells, the high end for better survival.

In the case of `CC(C)(C)OO` [TBHP, Tert-Butyl Hydrogen Peroxide], the “ROS level (percentage of the negative control group)” value in the data set with HepG2 cells [1] is recorded as 328.42%. This compound registered a cell viability in the data set with HepG2 cells [2] of 65.67%. This compound also showed an SOD activity with HepG2 cells [3] of 8.43 U/mg protein. For the same compound, the “MDA level (lipid peroxidation)” value in the data set on HepG2 cells [4] was “significant increase in MDA”.

In the case of “(2E,3,7R,11R,15)-tetramethyl-hexadecen-1-ol [PHY]”, in the data set on HepG2 cells [1] (HepG2, TBHP (10 μg/mL)), the “reduction of ROS level compared to the positive control (328.16%)” value is listed as 97.44%. Further, in the data set with HepG2 cells [1], the “ROS level (percentage of the negative control group)” value is 230.72%. The compound further gave an SOD activity with HepG2 cells [3] of 11.61 U/mg protein. Besides, the “scavenging capability against •OH radicals” value in data set [5] came to 40%. For the same compound, the “retention rate of phytol under UV” value in data set [6] is 1.21%.

(Values after US20250195432A1, “METHODS FOR PREPARING AND CHARACTERIZING ZEIN-FUCOIDAN CONJUGATED NANO-LIPOSOME FOR PHYTOL ENCAPSULATION” (Zhejiang Academy of Forestry, priority 2023, published 2025).)
